Experimental data reported in ChEMBL document CHEMBL5154839, “Discovery of a selective and covalent small-molecule inhibitor of BFL-1 protein that induces robust apoptosis in cancer cells” (Eur J Med Chem, 2022).

Tests used:
[1] = target: T1, Bcl-2-related protein A1 (Homo sapiens, UniProt Q16548); experiment: Displacement of fluorescein tagged BID BH3 peptide from His-tagged recombinant BFL-1 (1 to 151 residues) (unknown origin) expressed in Escherichia coli BL21 (DE3) assessed as inhibition constant incubated for 24 hrs by fluorescence polarization-based competitive binding assay
T1 sequence (Q16548 whole entry): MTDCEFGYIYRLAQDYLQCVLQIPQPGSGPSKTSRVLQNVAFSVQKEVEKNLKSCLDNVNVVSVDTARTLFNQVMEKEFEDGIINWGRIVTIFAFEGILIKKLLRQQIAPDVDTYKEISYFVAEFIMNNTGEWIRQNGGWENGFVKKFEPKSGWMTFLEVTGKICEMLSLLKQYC

[2] = target: T1, Bcl-2-related protein A1
Description: Inhibition of His-tagged human BFL-1(1 to 151 residues) expressed in Escherichia coli BL21 (DE3) by fluorescence polarization-based binding assay

[3] = target: Induced myeloid leukemia cell differentiation protein Mcl-1 (Homo sapiens, UniProt Q07820); experiment: Displacement of fluorescent-labeled BID-BH3 peptide from His-tagged human MCL-1 expressed in Escherichia coli BL21 (DE3) assessed as inhibition constant by fluorescence polarization-based competitive binding assay
Induced myeloid leukemia cell differentiation protein Mcl-1, sequence (Q07820 whole entry, the tested form may be a part): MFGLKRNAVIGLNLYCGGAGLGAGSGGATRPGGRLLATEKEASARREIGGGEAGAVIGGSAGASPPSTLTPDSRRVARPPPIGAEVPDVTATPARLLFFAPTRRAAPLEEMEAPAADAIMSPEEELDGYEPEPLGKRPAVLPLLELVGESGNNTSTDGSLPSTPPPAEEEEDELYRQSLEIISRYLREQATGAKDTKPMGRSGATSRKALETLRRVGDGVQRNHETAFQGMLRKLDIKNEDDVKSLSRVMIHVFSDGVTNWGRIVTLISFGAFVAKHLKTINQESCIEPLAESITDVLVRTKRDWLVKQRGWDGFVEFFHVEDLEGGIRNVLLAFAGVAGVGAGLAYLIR

[4] = target: T1, Bcl-2-related protein A1; experiment: Displacement of fluorescent-labeled BID-BH3 peptide from His-tagged human BFL-1 (1 to 151 residues) expressed in Escherichia coli BL21 (DE3) assessed as inhibition constant by fluorescence polarization-based competitive binding assay
[5] = target: Apoptosis regulator Bcl-2 (Homo sapiens, UniProt P10415); experiment: Displacement of fluorescent-labeled BID-BH3 peptide from human BCL-2 expressed in Escherichia coli BL21 (DE3) assessed as inhibition constant by fluorescence polarization-based competitive binding assay
Apoptosis regulator Bcl-2, sequence (P10415 whole entry): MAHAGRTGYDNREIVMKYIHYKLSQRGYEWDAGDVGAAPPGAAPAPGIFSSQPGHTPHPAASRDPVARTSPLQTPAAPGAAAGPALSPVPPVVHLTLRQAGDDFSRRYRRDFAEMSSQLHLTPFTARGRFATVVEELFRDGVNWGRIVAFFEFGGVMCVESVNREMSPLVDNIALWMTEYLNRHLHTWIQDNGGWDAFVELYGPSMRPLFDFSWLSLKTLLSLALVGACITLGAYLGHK

[6] = target: Bcl-2-like protein 2 (Homo sapiens, UniProt Q92843); experiment: Displacement of fluorescent-labeled BID-BH3 peptide from human BCL-W expressed in Escherichia coli BL21 (DE3) assessed as inhibition constant by fluorescence polarization-based competitive binding assay
Bcl-2-like protein 2, sequence (Q92843 whole entry): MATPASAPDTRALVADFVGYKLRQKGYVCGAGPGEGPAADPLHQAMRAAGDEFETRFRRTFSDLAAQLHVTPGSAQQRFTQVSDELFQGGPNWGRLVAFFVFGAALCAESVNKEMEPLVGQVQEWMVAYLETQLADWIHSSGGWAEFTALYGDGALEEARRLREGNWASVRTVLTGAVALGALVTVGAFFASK

[7] = target: Bcl-2-like protein 1 (Homo sapiens, UniProt Q07817); experiment: Displacement of fluorescent-labeled BID-BH3 peptide from human BCL-xL expressed in Escherichia coli BL21 (DE3) assessed as inhibition constant by fluorescence polarization-based competitive binding assay
Bcl-2-like protein 1, sequence (Q07817 whole entry): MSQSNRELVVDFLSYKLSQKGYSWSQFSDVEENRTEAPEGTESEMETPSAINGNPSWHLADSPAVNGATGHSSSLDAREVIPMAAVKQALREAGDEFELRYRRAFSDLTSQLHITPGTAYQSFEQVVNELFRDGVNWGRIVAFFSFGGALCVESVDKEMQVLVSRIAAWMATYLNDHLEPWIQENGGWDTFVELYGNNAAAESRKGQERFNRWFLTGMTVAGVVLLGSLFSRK

[8] = tested on: U-937; experiment: Induction of apoptosis in human U-937 cells assessed as early apoptotic cells at 10 uM measured after 4 hrs by Annexin PI staining based flow cytometry method (reference value: 1.95 %); format: functional
[9] = tested on: MV4-11; experiment: Growth inhibition of human MV4-11 cells incubated for 4 days by WST assay; format: functional, cell-based; details: MV4-11, 96 h
[10] = tested on: U-937; experiment: Induction of apoptosis in human U-937 cells assessed as late apoptotic cells at 40 uM measured after 4 hrs by Annexin PI staining based flow cytometry method (reference value: 1.62 %); format: functional
[11] = tested on: K562; experiment: Growth inhibition of human K562 cells incubated for 4 days by WST assay; format: functional, cell-based; details: K562, 96 h
[12] = tested on: U-937; experiment: Induction of apoptosis in human U-937 cells assessed as necrotic cells at 40 uM measured after 4 hrs by Annexin PI staining based flow cytometry method (reference value: 0.00 %); format: functional
[13] = tested on: U-937; experiment: Induction of apoptosis in human U-937 cells assessed as necrotic cells at 10 uM measured after 4 hrs by Annexin PI staining based flow cytometry method (reference value: 0.00 %); format: functional
[14] = tested on: U-937; experiment: Induction of apoptosis in human U-937 cells assessed as late apoptotic cells at 10 uM measured after 4 hrs by Annexin PI staining based flow cytometry method (reference value: 1.62 %); format: functional
[15] = Displacement of fluorescein tagged BID BH3 peptide from His-tagged recombinant BFL-1 (1 to 151 residues) C55A mutant (unknown origin) expressed in Escherichia coli BL21 (DE3) assessed as inhibition constant incubated for 24 hrs by fluorescence polarization-based competitive binding assay; parameters: species or system Homo sapiens
[16] = tested on: U-937; experiment: Induction of apoptosis in human U-937 cells assessed as necrotic cells at 60 uM measured after 4 hrs by Annexin PI staining based flow cytometry method (reference value: 0.00 %); format: functional
[17] = tested on: U-937; experiment: Induction of apoptosis in human U-937 cells assessed as early apoptotic cells at 40 uM measured after 4 hrs by Annexin PI staining based flow cytometry method (reference value: 1.95 %); format: functional
[18] = tested on: Raji; experiment: Growth inhibition of human Raji cells incubated for 4 days by WST assay; format: functional, cell-based; details: 96 h
[19] = tested on: U-937; experiment: Growth inhibition of human U-937 cells incubated for 4 days by WST assay; format: functional, cell-based; details: U-937, 96 h
[20] = tested on: RPMI-8226; experiment: Growth inhibition of human RPMI-8226 cells incubated for 4 days by WST assay; format: functional, cell-based; details: RPMI-8226, 96 h
[21] = tested on: HL-60; experiment: Growth inhibition of human HL-60 cells incubated for 4 days by WST assay; format: functional, cell-based; details: HL-60, 96 h
[22] = tested on: MM1.S; experiment: Growth inhibition of human MM1.S cells incubated for 4 days by WST assay; format: functional, cell-based; details: 96 h
[23] = tested on: U-937; experiment: Induction of apoptosis in human U-937 cells assessed as early apoptotic cells at 20 uM measured after 4 hrs by Annexin PI staining based flow cytometry method (reference value: 1.95 %); format: functional
[24] = tested on: U-937; experiment: Induction of apoptosis in human U-937 cells assessed as late apoptotic cells at 60 uM measured after 4 hrs by Annexin PI staining based flow cytometry method (reference value: 1.62 %); format: functional
[25] = tested on: U-937; experiment: Induction of apoptosis in human U-937 cells assessed as necrotic cells at 20 uM measured after 4 hrs by Annexin PI staining based flow cytometry method (reference value: 0.00 %); format: functional
[26] = tested on: U-937; experiment: Induction of apoptosis in human U-937 cells assessed as late apoptotic cells at 20 uM measured after 4 hrs by Annexin PI staining based flow cytometry method (reference value: 1.62 %); format: functional
[27] = tested on: U-937; experiment: Induction of apoptosis in human U-937 cells assessed as early apoptotic cells at 60 uM measured after 4 hrs by Annexin PI staining based flow cytometry method (reference value: 1.95 %); format: functional
[28] = tested on: Kasumi 1; experiment: Growth inhibition of human Kasumi 1 cells incubated for 4 days by WST assay; format: functional, cell-based; details: Kasumi 1, 96 h

**Q.** Which Ki [1] does the source give for `C=CC(=O)N1CCN(c2c3ccc(-c4cccc(F)c4)cc3nn2CCCO)CC1` here?
**A.** 2.41 µM

**Q.** For `C=CC(=O)N1CCN(c2c3ccc(-c4cccc(F)c4)cc3nn2Cc2cccc(Cl)c2)CC1`, which Ki [1] is on record?
**A.** > 100 µM

**Q.** For `CC(=O)NC(Cc1c[nH]c2ccccc12)C(=O)NCCSSCCN(C)C` (stereo not given), which IC50 [2] is on record?
**A.** 1.3 µM

**Q.** For `CC1(C)CCC(CN2CCN(c3ccc(C(=O)NS(=O)(=O)c4ccc(NCC5CCOCC5)c([N+](=O)[O-])c4)c(Oc4cnc5[nH]ccc5c4)c3)CC2)=C(c2ccc(Cl)cc2)C1` [VENETOCLAX], which Ki [3] is on record?
**A.** > 0.444 µM

**Q.** With `C=CC(=O)N1CCN(c2c3ccc(-c4cccc(F)c4)cc3nn2CCCN(C)C)CC1` as the molecule, how does the Ki [1] read?
**A.** 18.1 µM

**Q.** For `C=CC(=O)N1CCN(c2c3ccc(-c4cccc(F)c4)cc3nn2Cc2ccc(O)cc2)CC1`, which Ki [1] is on record?
**A.** 10.2 µM

**Q.** With `C=CC(=O)N1CCN(c2c3ccc(-c4cccc(F)c4)cc3nn2Cc2ccc(C#N)cc2)CC1` as the molecule, how does the Ki [1] read?
**A.** 3.23 µM

**Q.** For `C=CC(=O)N1CCN(c2c3ccc(-c4cccc(F)c4)cc3nn2CCC)CC1`, which Ki [1] is on record?
**A.** 1.13 µM

**Q.** What does the source list for `CSc1ccc(C(Nc2ccccn2)c2c(C)[nH]c3ccccc23)cc1` (stereo not given)?
**A.** Ki [4]: 2.9 µM; Ki [5]: 12.9 µM

**Q.** For `C=CC(=O)N1CCN(c2c3ccc(-c4cccc(F)c4)cc3nn2Cc2cccc(O)c2)CC1`, which Ki [1] is on record?
**A.** 18.4 µM

**Q.** With `CN1CCN(C2=C(Cl)C(=O)N(c3ccc(Cl)c(Cl)c3)C2=O)CC1` as the molecule, how does the Ki [6] read?
**A.** 12.5 µM

**Q.** And the Ki [4]?
**A.** 0.4 µM

**Q.** And the Ki [5]?
**A.** 12.5 µM

**Q.** What about the Ki [7] of the same molecule?
**A.** 50 µM

**Q.** With `C=CC(=O)N1CCN(c2c3ccc(-c4cccc(F)c4)cc3nn2Cc2ccc(C(=O)O)cc2)CC1` as the molecule, how does the Ki [1] read?
**A.** > 100 µM

**Q.** For `C=CC(=O)N1CCN(c2c3ccc(-c4cccc(F)c4)cc3nn2Cc2cccc(C(=O)O)c2)CC1`, which Ki [1] is on record?
**A.** > 100 µM

**Q.** With `CCC(=O)N1CCN(c2c3ccc(-c4cccc(F)c4)cc3nn2Cc2ccccc2)CC1` as the molecule, how does the Activity [8] read?
**A.** 1.96%

**Q.** What about the IC50 [9] of the same molecule?
**A.** 8.9 µM

**Q.** And the Activity [10]?
**A.** 1.57%

**Q.** What about the IC50 [11] of the same molecule?
**A.** 10.4 µM

**Q.** And the Activity [12]?
**A.** 0.03%

**Q.** And the Activity [13]?
**A.** 0.16%

**Q.** What about the Activity [14] of the same molecule?
**A.** 2.02%

**Q.** And the Ki [15]?
**A.** > 200 µM

**Q.** What about the Activity [16] of the same molecule?
**A.** 0.03%

**Q.** And the Activity [17]?
**A.** 3.14%

**Q.** What about the IC50 [18] of the same molecule?
**A.** 48.2 µM

**Q.** What about the IC50 [19] of the same molecule?
**A.** 9.3 µM

**Q.** And the IC50 [20]?
**A.** 11.8 µM

**Q.** What about the IC50 [21] of the same molecule?
**A.** 28.9 µM

**Q.** What about the IC50 [22] of the same molecule?
**A.** 16.8 µM

**Q.** What about the Activity [23] of the same molecule?
**A.** 2.79%

**Q.** And the Activity [24]?
**A.** 2.06%

**Q.** And the Activity [25]?
**A.** 0.05%

**Q.** And the Activity [26]?
**A.** 1.8%

**Q.** What about the Ki [1] of the same molecule?
**A.** 24.1 µM

**Q.** And the Activity [27]?
**A.** 3.65%

**Q.** What about the IC50 [28] of the same molecule?
**A.** 7.1 µM

**Q.** For `C=CC(=O)N1CCN(c2c3ccc(-c4cccc(F)c4)cc3nn2Cc2ccc(OC)cc2)CC1`, which Ki [1] is on record?
**A.** > 100 µM

**Q.** Which Ki [1] does the source give for `COc1cccc(Cn2nc3cc(-c4cccc(F)c4)ccc3c2N2CCNCC2)c1` here?
**A.** 3.01 µM

**Q.** For `C=CC(=O)N1CCN(c2c3ccc(-c4cccc(F)c4)cc3nn2CC)CC1`, which Ki [1] is on record?
**A.** 2.85 µM

**Q.** For `C=CC(=O)N1CCN(c2c3ccc(-c4cccc(F)c4)cc3nn2Cc2ccc(Cl)cc2)CC1`, which Ki [1] is on record?
**A.** > 100 µM

**Q.** With `C=CC(=O)N1CCN(c2c3ccc(-c4cccc(F)c4)cc3nn2CCCOC)CC1` as the molecule, how does the Ki [1] read?
**A.** > 100 µM

**Q.** With `CC(C)(C)c1ccc(CN2CCN(S(=O)(=O)Nc3ccc(SCCc4ccccc4)cc3C(=O)O)CC2)cc1` as the molecule, how does the IC50 [9] read?
**A.** 20.8 µM

**Q.** And the IC50 [11]?
**A.** 18.9 µM

**Q.** What about the Ki [15] of the same molecule?
**A.** 2.28 µM

**Q.** And the IC50 [18]?
**A.** 51.5 µM

**Q.** What about the IC50 [19] of the same molecule?
**A.** 19.9 µM

**Q.** And the IC50 [20]?
**A.** 21.3 µM

**Q.** What about the IC50 [21] of the same molecule?
**A.** 32.8 µM

**Q.** And the IC50 [22]?
**A.** 32.6 µM

**Q.** And the IC50 [28]?
**A.** 20.3 µM

**Q.** With `C=CC(=O)N1CCN(c2c3ccc(-c4cccc(F)c4)cc3nn2Cc2cccc(C#N)c2)CC1` as the molecule, how does the Ki [1] read?
**A.** 3.34 µM

**Q.** Which Ki [1] does the source give for `C=CC(=O)N1CCN(c2c3ccc(-c4cccc(F)c4)cc3nn2CCC(C)(C)C)CC1` here?
**A.** > 100 µM
